From patent US8741932B2, “Imidazopyridine derivatives” (Piramal Enterprises Limited, priority 2009, dated 2014) come the findings set out here.

One test deals with T1, mTOR (Homo sapiens, UniProt P42345).
T1 construct: endogenous in cells; host or cells: A2780 ovarian cell line (ATCC)
The test is described as follows: mTOR activity assay (cell ELISA, Phospho-AKT Ser 473, A2780 cells). The conditions noted are these: for inhibition at 1 µM: read-out: % Inhibition of mTOR activity at 1 μM. It is filed as cell-based. Here is the method: Seed cells (Ovarian cell line A2780, ATCC) were plated in a 96 well microtitre plate at a density of 50,000 cells/cm^2 in appropriate complete cell culture medium. The cells were allowed to adhere for 18-24 hours. The cells were allowed to starve for 24 hours. […] Then the cells were stimulated with 20% FCS for 30 minutes. A typical assay would consist of a set of unstimulated cells, a set of stimulated cells and a set of cells treated with compounds of present invention and a set of cells treated with the stimulator. The medium was discarded. The cells were fixed with 100 μL of 3.7% formaldehyde for 15 minutes. The formaldehyde was discarded by inverting the plate and tapping it on a thick tissue paper layer to remove traces. The cells were washed and permeabilized with 200 μL PBS+Triton-X 100 solution (hereafter referred to as PBS-Triton, containing 0.1% triton-X 100 in 1×PBS) three times, incubating the cells each time for 5 minutes. 100 μL blocking solution (10% FCS in PBS-Triton) was added and incubated for 1 hour at 25° C. The blocking solution was discarded and cells were incubated with the primary antibody in PBS-Triton at a dilution of 1:500 for 1 hour at RT (25° C.). [The primary antibody is Phospho-AKT (Ser 473); Cell Signaling; Cat. No. 9271]. The primary antibody solution was discarded and the cells were washed 3 times with PBS-Triton solution and incubated with the HRP-conjugated secondary antibody in PBS-Triton at a dilution of 1:500 for 1 hour at RT (25° C.). The cells were washed 3 times with PBS-Triton followed by two washes with PBS (to remove traces of triton-X 100). The OPD (o-phenylene diamine dihydrochloride) substrate was prepared for detection of the signal by dissolving one tablet set (two tablets) of SigmaFast OPD (Sigma, Cat No. P9187) in 20 mL distilled water. It should be protected from light. 100 μL OPD solutions was added to the wells and the plate was incubated in the dark for 3-5 minutes (depending upon the development of the color). The reaction was stopped by adding 50 μL 2 N H2SO4. The absorbance was measured at 490 nm. The values were expressed in the treated samples, in terms of percentage or fold decrease in AKT phosphorylation with respect to the induced sample. PI-103 (Calbiochem, USA) was used as a standard.
(In general: An ELISA detects its analyte on a solid surface through an enzyme-linked reagent.)

For the next test, the system named is G361. Put plainly: Cytotoxicity assay (propidium iodide), G361. It is filed as cell-based. The conditions noted are these: G-361; G361 (C9a, human melanoma); 48 hours.
Another test relates to MCF7. Put plainly: Cytotoxicity assay (propidium iodide), MCF7. The note with it: Homo sapiens; MCF7 (C6c, breast); 48 hours. It is filed as cell-based.
The target of another test is T2, PI3Kα kinase (Homo sapiens, UniProt P42336).
T2 construct: purchased Millipore, USA
Put plainly: Kinase assay (PI3Kα). It counts as biochemical. The conditions noted are these: read-out: IC50 (μM) for PI3K inhibition. A digest of the protocol:
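Recombinant PI3Kα (20 ng) phosphorylated 12.5 μg phosphatidylinositol with 10 μM ATP and 1 μCi ^32γ P […] in 10 mM Hepes pH 7.5, 50 mM MgCl2 for 20 min at 30° C. Lipids were extracted with MeOH/CHCl3, resolved by TLC, and labelled PI quantified by autoradiography densitometry; PI-103 served as standard.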

The subject of a further test is A549. Put plainly: Cytotoxicity assay (propidium iodide), A549. It is filed as cell-based. The note with it: Homo sapiens; A549 (C1a, lung); 48 hours.
Another test concerns PC3. Put plainly: Cytotoxicity assay (propidium iodide), PC3. The conditions noted are these: Homo sapiens, PC-3, 48 h, read-out: IC50 cytotoxicity.
The test system of another test is MDA MB 468. Put plainly: Cytotoxicity assay (propidium iodide), MDA MB 468. The note with it: Homo sapiens; MDA MB 468 (C6b, breast); 48 hours. It counts as cell-based.
The test system of the next test is H460. The test is described as follows: Cytotoxicity assay (propidium iodide), H460. It is filed as cell-based. The note with it: Homo sapiens, NCI-H460; H460 (C1b, lung); 48 hours.
The test system of a further test is IL-8. The test is described as follows: Synovial tissue assay, IL-8. The conditions noted are these: Homo sapiens; synovial tissue cells from rheumatoid arthritis patients, 16 hours. It counts as cell-based. As for the experimental part: (§1) The assay was designed as in the reference, Lancet, 2(8657), 244-7, Jul.
(§2) Stock Solution: Compounds of the present invention were dissolved in DMSO to obtain a stock solution of 20 mM.
(§3) Synovial tissue was obtained from rheumatoid arthritis patients undergoing knee replacement surgery. The tissue was minced into small pieces and digested in RPMI medium containing 100 U/ml penicillin-G, 100 μg/ml streptomycin, 50 ng/ml amphotericin B (GIBCO; USA), 1.33 mg/ml collagenase Type I (Worthington Biochemical Corporation, New Jersey), 0.5 μg/ml DNAse Type I (Sigma Aldrich; St. Louis, Mo.) and 8.33 U/ml heparin (Biological E. Limited, India) for 3 hours at 37° C., 5% CO2. The digested tissue was filtered through a membrane (mesh size 70 micron; Sigma Aldrich). Subsequently, the cells were washed 3 times and resuspended in complete medium (RPMI supplemented with 5% FBS and 5% human serum-AB+) at a concentration of 1×10^6 cells/ml. All cell washes in this assay were performed using Rosewall Park Memorial Institute (RPMI)-1640 medium (JRH; Australia). For the experiment, 100 μl of cell suspension was added to the wells of a 96-well culture plate. Following cell plating, 100 μl of the culture medium and 1 μl of various concentrations (0.01, 0.03, 0.1, 0.3, 1, 3, 10, 30 and 100 μM) of the compounds of present invention dissolved in DMSO were added to the cells. The final concentration of DMSO was adjusted to 0.5%. For experimental purposes, 1 μl of […] concentrated solution of the compounds of present invention were dissolved in 200 μl cell suspension to achieve a final concentration of 0.01, 0.03, 0.1, 0.3, 1, 3, 10, 30 and 100 μM. The vehicle (0.5% DMSO) was used as control. 10 μM dexamethasone (Sigma Aldrich) or 1 μM 7-hydroxyfluorinide (7HF) were used as standards for the experiments. The plates were incubated for 16 hours at 37° C., 5% CO2. Subsequently, the supernatants were harvested and stored at −70° C. The amounts of TNF-α, IL-6 and interleukin-8 (IL-8) in the supernatants were assayed using OptiEIA ELISA sets, (BD BioSciences Pharmingen). The protocol followed was as per manufacturers instructions. […] The cytotoxicity of test compounds in synovial cells was assessed by MTS assay. Absorbance was measured at 490 nm. Percent cytotoxicity was calculated by the equation: % Cytotoxicity=(A−B)/A×100 where, A is the absorbance of cells treated with DMSO alone and B is the absorbance of cells treated with the test article.

Test [1] deals with IL-6. Put plainly: Human monocyte assay, LPS-stimulated IL-6. The conditions noted are these: Monocyte; human monocytes, 1 μg/ml LPS, 5 hours. It is filed as cell-based. A digest of the protocol:
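Adherent human PBMC-derived monocytes (2×10^4/well) were cultured 48 h, preincubated 30 min with compound or 0.5% DMSO, then stimulated with 1 μg/ml E. coli LPS for 5 h at 37° C. TNF-α and IL-6 in supernatants were measured by ELISA.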

The next test has as its system BT 549. Put plainly: Cytotoxicity assay (propidium iodide), BT 549. It is filed as cell-based. The conditions noted are these: Homo sapiens; BT 549 (C6d, breast); 48 hours.
The test system of the next test is STAT3. Put plainly: STAT3 bioassay (Hela Stat3-luc, luciferase). It is filed as cell-based. The conditions noted are these: Homo sapiens, Oncostatin M induction. A digest of the protocol: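 Hela Stat3-luc cells (20,000/well, 24 h) pretreated with compound 1 h, then induced with 100 ng/ml final Oncostatin M for 7-8 h at 37 °C. Luciferase luminescence after lysis; percent inhibition versus induction control, IC50 from these percentages.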

Another test relates to TNF-α. Put plainly: Synovial tissue assay, TNF-α. It is filed as cell-based. The note with it: Homo sapiens; synovial tissue cells from rheumatoid arthritis patients, 16 hours. Here is the method: as §1, §2, §3
The subject of test [2] is IL-6. Put plainly: Synovial tissue assay, IL-6. It is filed as cell-based. The conditions noted are these: Homo sapiens; synovial tissue cells from rheumatoid arthritis patients, 16 hours. As for the experimental part:
as §1, §2, §3

The test system of the next test is A2780. The test is described as follows: Cytotoxicity assay (propidium iodide), A2780. The note with it: Homo sapiens; A2780 (C3a, ovarian); 48 hours. It counts as cell-based.
The test system of another test is PANC 1. Put plainly: Cytotoxicity assay (propidium iodide), PANC 1. It is filed as cell-based. The note with it: Homo sapiens; PANC 1 (C5a, pancreatic); 48 hours.
The next test concerns SKOV3. Put plainly: Cytotoxicity assay (propidium iodide), SKOV3. It is filed as cell-based. The note with it: Homo sapiens, SK-OV-3; SKOV3 (C3b, ovarian); 48 hours.
The test system of another test is OVCAR 3. The test is described as follows: Cytotoxicity assay (propidium iodide), OVCAR 3. The conditions noted are these: Homo sapiens; OVCAR 3 (C3c, ovarian); 48 hours. It counts as cell-based.
In the next test the test system is CAPAN1. The test is described as follows: Cytotoxicity assay (propidium iodide), CAPAN1. It is filed as cell-based. The conditions noted are these: Homo sapiens, CAPAN-1; CAPAN1 (C5b, pancreatic); 48 hours.
A further test deals with MDA MB 231. The test is described as follows: Cytotoxicity assay (propidium iodide), MDA MB 231. It is filed as cell-based. The conditions noted are these: Homo sapiens; MDA MB 231 (C6a, breast); 48 hours.
The test system of another test is HT29. The test is described as follows: Cytotoxicity assay (propidium iodide), HT29. It counts as cell-based. The note with it: Homo sapiens, HT-29; HT29 (C4a, colon); 48 hours.

T2 sequence (P42336 whole entry): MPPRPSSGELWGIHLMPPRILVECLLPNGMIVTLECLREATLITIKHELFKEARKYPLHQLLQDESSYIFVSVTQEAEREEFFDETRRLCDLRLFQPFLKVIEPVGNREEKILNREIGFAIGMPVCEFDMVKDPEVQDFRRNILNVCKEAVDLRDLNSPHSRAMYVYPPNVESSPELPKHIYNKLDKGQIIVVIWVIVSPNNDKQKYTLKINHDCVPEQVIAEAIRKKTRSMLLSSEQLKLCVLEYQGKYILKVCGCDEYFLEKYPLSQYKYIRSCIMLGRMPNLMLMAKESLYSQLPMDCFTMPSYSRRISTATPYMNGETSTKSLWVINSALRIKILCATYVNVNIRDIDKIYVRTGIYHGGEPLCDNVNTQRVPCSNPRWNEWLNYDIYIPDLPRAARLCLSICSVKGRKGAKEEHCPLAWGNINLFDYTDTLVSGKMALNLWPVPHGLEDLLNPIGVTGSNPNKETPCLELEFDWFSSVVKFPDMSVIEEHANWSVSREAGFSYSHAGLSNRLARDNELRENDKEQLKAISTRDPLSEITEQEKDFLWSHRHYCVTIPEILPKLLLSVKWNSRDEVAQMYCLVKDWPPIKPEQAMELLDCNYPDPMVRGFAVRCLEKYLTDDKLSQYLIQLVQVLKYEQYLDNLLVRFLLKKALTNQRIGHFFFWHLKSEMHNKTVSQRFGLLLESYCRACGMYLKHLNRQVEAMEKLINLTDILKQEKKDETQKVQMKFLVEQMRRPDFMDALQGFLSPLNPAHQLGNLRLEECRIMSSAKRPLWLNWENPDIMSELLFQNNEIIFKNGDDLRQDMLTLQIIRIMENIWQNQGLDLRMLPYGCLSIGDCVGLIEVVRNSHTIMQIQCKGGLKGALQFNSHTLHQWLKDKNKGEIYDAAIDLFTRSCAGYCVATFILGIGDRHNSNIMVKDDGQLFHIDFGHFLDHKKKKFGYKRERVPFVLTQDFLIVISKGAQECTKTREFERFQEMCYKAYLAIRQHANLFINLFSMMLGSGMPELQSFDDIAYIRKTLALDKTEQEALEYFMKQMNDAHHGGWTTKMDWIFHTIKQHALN
T2 sequence (P27986 whole entry partner): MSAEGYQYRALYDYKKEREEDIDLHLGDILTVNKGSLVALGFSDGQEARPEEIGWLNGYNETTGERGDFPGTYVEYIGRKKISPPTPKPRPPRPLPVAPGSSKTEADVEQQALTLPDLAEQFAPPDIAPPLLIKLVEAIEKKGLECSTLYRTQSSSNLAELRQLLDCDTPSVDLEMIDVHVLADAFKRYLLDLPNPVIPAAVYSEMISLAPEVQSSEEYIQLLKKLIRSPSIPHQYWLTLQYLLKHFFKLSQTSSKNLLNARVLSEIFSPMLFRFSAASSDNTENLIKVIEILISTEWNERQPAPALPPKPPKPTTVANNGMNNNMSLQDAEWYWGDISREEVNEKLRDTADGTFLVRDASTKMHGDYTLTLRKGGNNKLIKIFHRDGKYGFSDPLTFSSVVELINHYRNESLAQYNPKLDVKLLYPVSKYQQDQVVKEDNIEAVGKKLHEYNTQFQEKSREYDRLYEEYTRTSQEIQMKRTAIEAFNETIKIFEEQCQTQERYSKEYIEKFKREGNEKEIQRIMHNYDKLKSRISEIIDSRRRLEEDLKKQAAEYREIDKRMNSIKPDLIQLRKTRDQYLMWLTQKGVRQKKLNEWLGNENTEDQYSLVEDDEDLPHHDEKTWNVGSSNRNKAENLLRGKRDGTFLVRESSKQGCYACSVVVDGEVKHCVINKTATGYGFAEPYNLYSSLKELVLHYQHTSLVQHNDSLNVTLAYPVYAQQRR
Protocol for BT 549: (§4) Cells from cell lines as mentioned in the table given below were seeded at a density of 3000 cells/well in a white opaque 96-well plate. Following incubation at 37° C./5% CO2 for a period of 18-24 hours, the cells were treated with various concentrations (stock solution was prepared in DMSO and subsequent dilutions were made in media as per ATCC guidelines) of the representative compounds of present invention (refer table 3) for a period of 48 hours. At the end of treatment, the spent culture medium was discarded, the cells were washed with 1×PBS and 200 μl of 7 μg/ml propidium iodide was added to each well. The plates were frozen at −70° C. for at least 24 hours. For analysis, the plates were brought to RT, allowed to thaw and were read in PolarStar fluorimeter with the fluorescence setting. The percentage of viable cells in the non treated set of wells was considered to be 100 and the percentage viability following treatment was calculated accordingly. IC50 values were calculated from graphs plotted using these percentages.
Protocol for CAPAN1: as §4
Protocol for G361: as §4
Protocol for H460: as §4
Protocol for HT29: as §4
Protocol for MCF7: as §4
Protocol for MDA MB 231: as §4
Protocol for MDA MB 468: as §4
Protocol for OVCAR 3: as §4
Protocol for PANC 1: as §4
Protocol for SKOV3: as §4

In general, inhibition refers to the share of the control response that was lost under treatment. By IC50 is commonly meant the concentration that gives 50% inhibition. For `CN(N=Cc1cnc2ccc(-c3cccnc3)cn12)S(=O)(=O)c1cccc(Br)c1` [Example 7, 3-Bromo-N-methyl-N′-((6-(pyridine-3-yl)imidazo[1,2-a]pyridine-3-yl)methylene) benzenesulfonohydrazide], at mTOR, the inhibition at 1 µM is 30 to 50%. For the same compound, the IC50 in the test with G361 was greater than 5 µM; with MCF7 it was greater than 5 µM; at PI3Kα kinase, 0.01 to 0.5 µM; with A549 it was greater than 5 µM; in the test on PC3 it was greater than 5 µM; in the test on MDA MB 468, greater than 5 µM. Further, in the test with H460, the IC50 is greater than 5 µM.
As to `CN(N=Cc1cnc2ccc(-c3cccnc3)cn12)S(=O)(=O)c1ccccc1C#N` [Example 9, 2-Cyano-N-methyl-N′-((6-(pyridine-3-yl)imidazo[1,2-a]pyridine-3-yl)methylene)benzenesulfonohydrazide], the IC50 lay in the range of 0.3 to 3 µM in the test on IL-8; 0.001 to 5 µM with IL-6 [1]; 0.01 to 5 µM in the test on BT 549; 0.01 to 5 µM with A549; 0.01 to 5 µM in the test with PC3; 5 to 10 µM in the test on STAT3. Also, the IC50 with TNF-α lay within 0.01 to 0.3 µM; in the test with IL-6 [2], 0.01 to 0.3 µM; in the test with MDA MB 468 it was 0.01 to 5 µM; in the test on A2780, 0.01 to 5 µM; in the test with H460, 0.01 to 5 µM.
Take `CN(N=Cc1cnc2ccc(-c3cccnc3)cn12)S(=O)(=O)c1ccc(C#N)cc1` [Example 11, 4-Cyano-N-methyl-N′-((6-(pyridine-3-yl)imidazo[1,2-a]pyridine-3-yl)methylene)benzenesulfonohydrazide]: the inhibition at 1 µM on mTOR lay in the range of 30 to 50%. Besides, the IC50 is no less than 5 µM in the test with IL-6 [1]; greater than 5 µM in the test with BT 549; 0.01 to 0.5 µM on PI3Kα kinase; greater than 5 µM with A549; greater than 5 µM in the test with PC3; greater than 5 µM in the test with MDA MB 468. In addition, the IC50 in the test with A2780 and with H460 was greater than 5 µM in each case.
Consider `CN(N=Cc1cnc2ccc(-c3cccnc3)cn12)S(=O)(=O)c1c(F)cc(F)cc1Br` [Example 26, 2-Bromo-4,6-difluoro-N-methyl-N′-((6-(pyridine-3-yl)imidazo[1,2-a]pyridine-3-yl)methylene) benzenesulfonohydrazide], for which the IC50 in the test with PANC 1 fell in the range of 0.01 to 5 µM; in the test on SKOV3, 0.01 to 5 µM; in the test with OVCAR 3, 0.01 to 5 µM; in the test with IL-6 [1], 0.001 to 5 µM; in the test with CAPAN1, 0.01 to 5 µM; on PI3Kα kinase it was 0.01 to 0.5 µM. Also, the IC50 in the test on A549 was 0.01 to 5 µM; in the test on STAT3, 0.1 to 5 µM; in the test with A2780 it was 0.01 to 5 µM; in the test with H460 it was 0.01 to 5 µM. This compound also gave an inhibition at 10 µM against mTOR (10 μM) greater than 50%.
As to `CN(N=Cc1cnc2ccc(-c3cccnc3)cn12)S(=O)(=O)C1CCCCC1` [Example 31, N-methyl-N′-((6-(pyridine-3-yl)imidazo[1,2-a]pyridine-3-yl)methylene) cyclohexanesulfonohydrazide], the IC50 with A549 was 0.01 to 5 µM; in the test on PC3, 0.01 to 5 µM; in the test on MDA MB 231, 0.01 to 5 µM; in the test on A2780, 0.01 to 5 µM; with H460 it was 0.01 to 5 µM; with HT29, greater than 5 µM.
As for `Cc1ccc([N+](=O)[O-])cc1S(=O)(=O)N(C)N=Cc1cnc2ccc(-c3ccncc3)cn12` [Example 85, N, 2-dimethyl-5-nitro-N′-((6-(pyridine-4-yl)imidazo[1,2-a]pyridine-3-yl)methylene) benzenesulfonohydrazide], the IC50 in the test on A549 is 0.01 to 5 µM; in the test with PC3, 0.01 to 5 µM; in the test on MDA MB 231 it was 0.01 to 5 µM; with A2780, 0.01 to 5 µM; in the test with H460, 0.01 to 5 µM; in the test on HT29, greater than 5 µM.
